Broadly, the Ki is the dissociation constant of the complex between target and ligand, obtained from inhibition or displacement. Broadly, the inhibition is the share of the control response that was lost under treatment. A low value points to little suppression. By IC50 is commonly meant the midpoint of a concentration-inhibition curve. By Kb is commonly meant the affinity of an antagonist, worked out from how it opposes an agonist. Read a low Kb as higher antagonist affinity.

From ChEMBL document CHEMBL1157642, “2-Amino-5-benzoyl-4-phenylthiazoles: Development of potent and selective adenosine A1 receptor antagonists” (Bioorg Med Chem, 2010) come the findings set out here.

Numbering of substitutions follows the chain as printed.

Experiment [1] deals with T1, Adenosine receptor A1 (Rattus norvegicus, UniProt P25099).
T1 sequence (P25099 whole entry): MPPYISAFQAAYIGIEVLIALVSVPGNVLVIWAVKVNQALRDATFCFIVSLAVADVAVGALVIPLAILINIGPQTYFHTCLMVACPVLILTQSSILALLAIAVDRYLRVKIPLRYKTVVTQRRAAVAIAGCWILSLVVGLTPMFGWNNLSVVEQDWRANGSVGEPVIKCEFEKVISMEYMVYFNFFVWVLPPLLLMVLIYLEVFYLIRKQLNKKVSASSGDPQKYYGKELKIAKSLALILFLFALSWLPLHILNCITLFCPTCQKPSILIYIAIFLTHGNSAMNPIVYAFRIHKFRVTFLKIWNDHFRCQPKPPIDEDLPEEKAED
Description: Displacement of [3H]CCPA from adenosine A1 receptor in rat brain cortex membrane

Another experiment has as its target T2, Adenosine receptor A2b (Homo sapiens, UniProt P29275).
T2 sequence (P29275 whole entry): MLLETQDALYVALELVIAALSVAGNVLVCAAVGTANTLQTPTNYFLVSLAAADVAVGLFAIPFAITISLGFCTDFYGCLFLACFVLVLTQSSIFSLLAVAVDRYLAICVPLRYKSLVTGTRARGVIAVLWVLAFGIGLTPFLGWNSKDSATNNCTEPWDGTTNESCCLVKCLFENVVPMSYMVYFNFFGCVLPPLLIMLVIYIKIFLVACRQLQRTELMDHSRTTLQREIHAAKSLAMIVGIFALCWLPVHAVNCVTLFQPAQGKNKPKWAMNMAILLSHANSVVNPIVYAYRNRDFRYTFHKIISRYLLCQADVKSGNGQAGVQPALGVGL
Briefly: Displacement of [3H]PSB-603 from human adenosine A2B receptor expressed in CHO cells. It counts as cell-based. In general terms: In a radioligand displacement assay an active substance lowers the binding of a labelled ligand.

Experiment [2] addresses T3, Adenosine receptor A2b (Homo sapiens) (UniProt P29275).
T3 sequence (whole entry): T2 sequence (P29275 whole entry)
Briefly: Displacement of [3H]PSB-603 from human adenosine A2B receptor expressed in CHO cells at 1 uM. It counts as cell-based.

Experiment [3] deals with T4, Adenosine receptor A2a (Rattus norvegicus, UniProt P30543).
T4 sequence (P30543 whole entry): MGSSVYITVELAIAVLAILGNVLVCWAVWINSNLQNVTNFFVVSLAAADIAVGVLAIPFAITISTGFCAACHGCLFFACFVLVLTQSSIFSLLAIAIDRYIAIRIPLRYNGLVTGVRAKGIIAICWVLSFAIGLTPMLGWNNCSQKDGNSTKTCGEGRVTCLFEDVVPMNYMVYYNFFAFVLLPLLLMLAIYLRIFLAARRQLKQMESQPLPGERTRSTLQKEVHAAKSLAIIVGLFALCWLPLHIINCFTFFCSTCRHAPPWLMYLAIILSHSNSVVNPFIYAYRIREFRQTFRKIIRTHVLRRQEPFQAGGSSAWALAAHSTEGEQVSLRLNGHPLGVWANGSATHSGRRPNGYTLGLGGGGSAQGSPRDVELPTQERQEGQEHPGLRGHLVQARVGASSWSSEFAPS
Experiment [4] concerns the target T5, Adenosine receptor A1 (Homo sapiens, UniProt P30542).
T5 sequence (P30542 whole entry): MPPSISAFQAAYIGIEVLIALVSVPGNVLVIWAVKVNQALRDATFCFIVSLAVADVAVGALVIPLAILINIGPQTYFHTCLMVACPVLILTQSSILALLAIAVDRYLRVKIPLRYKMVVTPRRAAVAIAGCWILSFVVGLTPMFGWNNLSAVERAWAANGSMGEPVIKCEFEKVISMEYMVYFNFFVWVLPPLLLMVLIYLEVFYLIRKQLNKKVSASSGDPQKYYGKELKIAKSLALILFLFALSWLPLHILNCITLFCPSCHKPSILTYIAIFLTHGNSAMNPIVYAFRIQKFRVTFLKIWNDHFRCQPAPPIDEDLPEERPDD
The experiment is described as follows: Displacement of [3H]CCPA from human adenosine A1 receptor expressed in CHO cells. The format is cell-based.

For experiment [5], the target named is Adenosine receptor A2a (Rattus norvegicus) (UniProt P30543). The experiment is described as follows: Displacement of [3H]MSX2 from adenosine A2A receptor in rat brain striatum membrane at 1 uM. The format is cell membranes.
Chain of Adenosine receptor A2a (Rattus norvegicus) (P30543 whole entry): as the sequence (P30543 whole entry) above
Experiment [6] has as its target T1, Adenosine receptor A1. Briefly: Displacement of [3H]DPCPX from adenosine A1 receptor in rat brain cortical membrane in absence of 100 uM GTP. It counts as cell membranes.
Experiment [7] deals with T6, Adenosine receptor A3 (Homo sapiens, UniProt P0DMS8).
T6 sequence (P0DMS8 whole entry): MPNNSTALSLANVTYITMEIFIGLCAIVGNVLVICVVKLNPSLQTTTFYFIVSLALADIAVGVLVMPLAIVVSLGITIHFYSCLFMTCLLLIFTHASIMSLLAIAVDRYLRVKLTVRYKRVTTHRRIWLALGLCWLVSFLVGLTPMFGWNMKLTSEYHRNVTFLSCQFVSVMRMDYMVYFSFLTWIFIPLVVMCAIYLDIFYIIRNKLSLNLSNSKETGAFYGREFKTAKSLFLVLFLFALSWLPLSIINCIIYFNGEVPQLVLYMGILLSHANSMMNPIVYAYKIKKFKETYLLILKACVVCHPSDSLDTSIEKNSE
The experiment is described as follows: biochemical.
Description: Displacement of [3H]PSB-11 from human adenosine A3 receptor expressed in CHO cells

In experiment [8] the target is T7, Adenosine receptor A2a (Homo sapiens, UniProt P29274). The experiment is described as follows: Displacement of [3H]MSX2 from human adenosine A2A receptor expressed in CHO cells. The format is cell-based.
T7 sequence (P29274 whole entry): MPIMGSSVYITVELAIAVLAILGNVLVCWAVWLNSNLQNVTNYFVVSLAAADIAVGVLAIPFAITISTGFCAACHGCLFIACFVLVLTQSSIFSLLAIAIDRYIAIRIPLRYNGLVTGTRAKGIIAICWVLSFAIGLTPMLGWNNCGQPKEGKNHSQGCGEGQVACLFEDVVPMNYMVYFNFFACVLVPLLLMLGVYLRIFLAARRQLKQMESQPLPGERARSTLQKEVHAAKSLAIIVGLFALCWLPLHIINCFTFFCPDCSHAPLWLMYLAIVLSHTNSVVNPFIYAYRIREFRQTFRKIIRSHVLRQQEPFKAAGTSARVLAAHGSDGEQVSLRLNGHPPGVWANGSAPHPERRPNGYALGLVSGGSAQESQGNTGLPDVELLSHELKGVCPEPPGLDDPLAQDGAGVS
Experiment [9] deals with T1, Adenosine receptor A1. The experiment is described as follows: Displacement of [3H]DPCPX from adenosine A1 receptor in rat brain cortical membrane in presence of 100 uM GTP. It counts as cell membranes.
Experiment [10] deals with T8, Adenosine receptor A1 (Rattus norvegicus) (UniProt P25099).
T8 sequence (whole entry): T1 sequence (P25099 whole entry)
Briefly: Potency shift, ratio of IC50 for rat brain cortical membrane adenosine A1 receptor in presence of 100 uM GTP to C50 for rat brain cortical membrane adenosine A1 receptor in absence of 100 uM GTP.

Experiment [11] addresses T9, Adenosine receptor A1 (Mus musculus, UniProt Q60612).
T9 sequence (Q60612 whole entry): T1 sequence (P25099 whole entry) with V151E, D155A, R157I, D316E, L319I, E325D
The experiment is described as follows: Binding affinity to mouse adenosine A1 receptor.

Experiment [12] concerns the target T10, Adenosine receptor A1 (Cavia porcellus, UniProt P47745).
T10 sequence (P47745 whole entry): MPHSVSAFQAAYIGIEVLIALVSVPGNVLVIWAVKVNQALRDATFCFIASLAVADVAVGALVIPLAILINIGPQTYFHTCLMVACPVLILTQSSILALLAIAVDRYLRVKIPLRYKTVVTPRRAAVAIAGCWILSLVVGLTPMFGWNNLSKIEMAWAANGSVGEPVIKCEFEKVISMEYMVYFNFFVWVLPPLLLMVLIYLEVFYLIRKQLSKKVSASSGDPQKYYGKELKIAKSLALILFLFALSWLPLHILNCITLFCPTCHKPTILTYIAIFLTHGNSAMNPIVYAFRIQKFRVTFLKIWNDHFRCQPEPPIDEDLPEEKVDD
The experiment is described as follows: Binding affinity to guinea pig adenosine A1 receptor.

In experiment [13] the target is T5, Adenosine receptor A1. The experiment is described as follows: Binding affinity to human adenosine A1 receptor.
The target in experiment [14] is T4, Adenosine receptor A2a. This is another data set of the same source.
Description: Binding affinity to rat adenosine A2A receptor
Experiment [15] addresses Adenosine receptor A2a (Cavia porcellus, UniProt P46616). Briefly: Binding affinity to guinea pig adenosine A2A receptor.
The target of experiment [16] is T3, Adenosine receptor A2b (Homo sapiens). Briefly: Antagonist activity at human adenosine A2B receptor. It counts as functional.
Experiment [17] concerns the target T7, Adenosine receptor A2a.
Description: Binding affinity to human adenosine A2A receptor
Experiment [18] has as its target T11, Adenosine receptor A3 (Rattus norvegicus, UniProt P28647).
T11 sequence (P28647 whole entry): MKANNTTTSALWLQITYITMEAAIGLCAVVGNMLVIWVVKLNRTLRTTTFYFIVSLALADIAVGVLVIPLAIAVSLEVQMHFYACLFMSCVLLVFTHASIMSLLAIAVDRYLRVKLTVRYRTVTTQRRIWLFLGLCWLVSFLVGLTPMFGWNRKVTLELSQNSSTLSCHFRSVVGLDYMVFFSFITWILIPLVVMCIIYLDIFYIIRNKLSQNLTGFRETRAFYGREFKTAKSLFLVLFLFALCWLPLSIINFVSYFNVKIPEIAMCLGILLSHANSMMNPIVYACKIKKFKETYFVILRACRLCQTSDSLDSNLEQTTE
Description: Binding affinity to rat adenosine A3 receptor

Experiment [19] concerns the target T12, Adenosine receptor A3 (Ovis aries, UniProt P35342).
T12 sequence (P35342 whole entry): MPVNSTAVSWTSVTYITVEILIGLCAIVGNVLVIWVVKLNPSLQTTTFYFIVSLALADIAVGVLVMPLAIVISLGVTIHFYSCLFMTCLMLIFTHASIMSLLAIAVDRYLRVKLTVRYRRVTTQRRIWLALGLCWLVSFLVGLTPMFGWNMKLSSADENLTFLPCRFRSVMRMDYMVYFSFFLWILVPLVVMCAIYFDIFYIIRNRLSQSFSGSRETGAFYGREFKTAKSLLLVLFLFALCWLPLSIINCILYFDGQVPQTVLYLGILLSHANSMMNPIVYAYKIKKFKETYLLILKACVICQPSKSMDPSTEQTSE
Briefly: Binding affinity to sheep adenosine A3 receptor.

Chain of Adenosine receptor A2a (Cavia porcellus, UniProt P46616) (P46616 whole entry): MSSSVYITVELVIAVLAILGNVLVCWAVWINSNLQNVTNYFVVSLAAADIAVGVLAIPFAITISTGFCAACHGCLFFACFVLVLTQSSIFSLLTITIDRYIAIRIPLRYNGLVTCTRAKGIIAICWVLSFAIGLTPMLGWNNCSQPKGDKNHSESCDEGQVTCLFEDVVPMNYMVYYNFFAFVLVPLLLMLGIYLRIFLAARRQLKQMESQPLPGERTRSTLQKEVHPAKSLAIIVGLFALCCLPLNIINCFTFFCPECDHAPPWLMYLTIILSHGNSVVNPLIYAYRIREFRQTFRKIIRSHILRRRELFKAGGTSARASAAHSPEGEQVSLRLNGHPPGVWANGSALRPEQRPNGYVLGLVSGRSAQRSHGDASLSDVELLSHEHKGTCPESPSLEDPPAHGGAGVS

As for `Cc1ccc(C(=O)c2sc(NC(=O)c3ccccc3)nc2-c2ccccc2)cc1`, the Ki at Adenosine receptor A1 [1] was 4.83 nM; at Adenosine receptor A2b it was greater than 1000 nM; at Adenosine receptor A2a [3], greater than 1000 nM; on Adenosine receptor A1 [4], 57.4 nM; on Adenosine receptor A3 [7], 2160 nM; on Adenosine receptor A2a [8], 6250 nM. Further, the inhibition in [2] and in experiment [5] was less than 30% in each case. Moreover, the results for the concentration for half-maximal inhibition (IC50) at Adenosine receptor A1 [6] and at Adenosine receptor A1 [9] were 22.1 nM and 22.3 nM, respectively. Also, the Ratio IC50 in experiment [10] stood at 0.99.

For `O=C(Nc1nc(-c2ccccc2)c(C(=O)c2ccccc2)s1)c1ccco1`, the Ki at Adenosine receptor A1 [1] is 5.77 nM; on Adenosine receptor A2b, greater than 1000 nM; on Adenosine receptor A2a [3], 662 nM; at Adenosine receptor A1 [4], 54.3 nM; at Adenosine receptor A3 [7], 208 nM; at Adenosine receptor A2a [8], 348 nM. Also, the inhibition in experiment [2] was less than 30%. The IC50 at Adenosine receptor A1 [6] was 25.4 nM; at Adenosine receptor A1 [9], 28.8 nM. The Ratio IC50 in experiment [10] was 1.2.

Turning to `O=C(O)CCCn1nc(-c2c(-c3ccccc3)nn3ccccc23)ccc1=O`, the inhibitory constant (Ki) at Adenosine receptor A1 [11] came out at 10.2 nM; on Adenosine receptor A1 [12], 10 nM; at Adenosine receptor A1 [13] it was 12 nM; at Adenosine receptor A2a [14], 1200 nM.

`O=C(/C=C/c1c(-c2ccccc2)nn2ccccc12)N1CCCC[C@@H]1CCO` [FK453] yielded a Ki on Adenosine receptor A1 [11] of 0.55 nM. Further, the IC50 on Adenosine receptor A2a [15] is 1180 nM; on Adenosine receptor A1 [12], 0.56 nM.

Turning to `COc1cc(-c2nc(NC(C)=O)sc2-c2ccncc2)cc(OC)c1OC`, the Ki on Adenosine receptor A1 [13] and at Adenosine receptor A2a [17] was greater than 10000 nM each time. Further, in [16], the Kb came out at 3200 nM.

On Adenosine receptor A3 [18], `Cn1c(=O)c2[nH]cnc2n(C)c1=O` [THEOPHYLLINE] displayed a Ki of 85000 nM.

Consider `Cn1cnc2c(N[C@H]3C[C@H]4CC[C@@H]3C4)ncnc21`, for which the Ki on Adenosine receptor A3 [19] worked out at 41.4 nM; at Adenosine receptor A2a [15], 3750 nM; on Adenosine receptor A1 [12], 375 nM.
